This note sets out measurements from ChEMBL document CHEMBL1201862, “PubChem BioAssay data set” (2004).

The test system of assay [1] is HEK293. In words: NOD1 signaling inhibitors, primary screen, cell-based, luminescence, uHTS (AID 1578). The conditions noted are these: Homo sapiens. The assay is classed as functional.
For assay [2], the system named is HEK293. In words: cells. To be noted: Homo sapiens.
In another assay the target is Tumor necrosis factor (Homo sapiens, UniProt P01375). In words: TNFa-triggered NF-kB activation inhibitors, SAR follow-up, cell-based, revised (AID 2337). The assay is classed as functional.
Tumor necrosis factor, sequence (P01375 whole entry): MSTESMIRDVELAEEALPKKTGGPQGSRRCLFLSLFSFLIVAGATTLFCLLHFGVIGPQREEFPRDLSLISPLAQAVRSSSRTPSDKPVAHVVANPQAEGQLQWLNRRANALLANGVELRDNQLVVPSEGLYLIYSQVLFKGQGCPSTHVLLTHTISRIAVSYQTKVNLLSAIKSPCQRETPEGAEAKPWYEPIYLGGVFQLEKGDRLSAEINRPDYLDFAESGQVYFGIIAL
The subject of assay [3] is HEK293. In words: NOD2 signaling inhibitors in MDP-stimulated cells, cell-based, uHTS, luminescence (AID 2001). The assay is classed as functional. The conditions noted are these: Homo sapiens.
The target in assay [4] is T1, Corticotropin-releasing factor receptor 2/Corticotropin-releasing factor-binding protein (Homo sapiens, UniProt P24387+Q13324).
T1 sequence (Q13324 whole entry): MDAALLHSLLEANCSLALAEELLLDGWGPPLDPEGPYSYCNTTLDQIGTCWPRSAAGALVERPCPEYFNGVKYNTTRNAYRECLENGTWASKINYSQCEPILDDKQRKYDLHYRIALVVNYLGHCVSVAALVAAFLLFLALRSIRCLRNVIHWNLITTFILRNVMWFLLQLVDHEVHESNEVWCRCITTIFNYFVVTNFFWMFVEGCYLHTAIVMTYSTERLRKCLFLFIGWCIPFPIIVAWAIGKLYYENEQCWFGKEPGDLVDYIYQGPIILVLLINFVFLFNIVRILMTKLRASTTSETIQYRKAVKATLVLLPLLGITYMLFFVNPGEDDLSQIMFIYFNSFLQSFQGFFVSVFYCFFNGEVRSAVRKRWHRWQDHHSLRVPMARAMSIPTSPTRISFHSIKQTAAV
T1 sequence (P24387 whole entry): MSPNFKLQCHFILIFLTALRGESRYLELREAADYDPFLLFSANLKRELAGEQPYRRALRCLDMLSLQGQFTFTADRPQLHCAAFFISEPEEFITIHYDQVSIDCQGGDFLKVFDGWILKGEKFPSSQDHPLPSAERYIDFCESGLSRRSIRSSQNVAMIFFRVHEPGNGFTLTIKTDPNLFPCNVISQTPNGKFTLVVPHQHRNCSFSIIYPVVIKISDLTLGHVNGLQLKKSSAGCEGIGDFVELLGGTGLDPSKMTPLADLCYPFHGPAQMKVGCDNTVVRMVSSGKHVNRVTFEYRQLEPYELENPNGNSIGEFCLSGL
In words: activators of CRF receptor 2 with binding protein – uHTS hits, confirmation (AID 602473). Format: functional. To be noted: read-out: EC50_Mean.

Assay [5] concerns the target T2, Nucleotide-binding oligomerization domain-containing protein 2 (Homo sapiens, UniProt Q9HC29). Nature of the assay: NOD2 signaling inhibitors, cell-based, luminescence, uHTS, HEK293 (AID 1566). Format: functional.
For assay [6], the target named is T3, Nucleotide-binding oligomerization domain-containing protein 1 (Homo sapiens, UniProt Q9Y239).
T3 sequence (Q9Y239 whole entry): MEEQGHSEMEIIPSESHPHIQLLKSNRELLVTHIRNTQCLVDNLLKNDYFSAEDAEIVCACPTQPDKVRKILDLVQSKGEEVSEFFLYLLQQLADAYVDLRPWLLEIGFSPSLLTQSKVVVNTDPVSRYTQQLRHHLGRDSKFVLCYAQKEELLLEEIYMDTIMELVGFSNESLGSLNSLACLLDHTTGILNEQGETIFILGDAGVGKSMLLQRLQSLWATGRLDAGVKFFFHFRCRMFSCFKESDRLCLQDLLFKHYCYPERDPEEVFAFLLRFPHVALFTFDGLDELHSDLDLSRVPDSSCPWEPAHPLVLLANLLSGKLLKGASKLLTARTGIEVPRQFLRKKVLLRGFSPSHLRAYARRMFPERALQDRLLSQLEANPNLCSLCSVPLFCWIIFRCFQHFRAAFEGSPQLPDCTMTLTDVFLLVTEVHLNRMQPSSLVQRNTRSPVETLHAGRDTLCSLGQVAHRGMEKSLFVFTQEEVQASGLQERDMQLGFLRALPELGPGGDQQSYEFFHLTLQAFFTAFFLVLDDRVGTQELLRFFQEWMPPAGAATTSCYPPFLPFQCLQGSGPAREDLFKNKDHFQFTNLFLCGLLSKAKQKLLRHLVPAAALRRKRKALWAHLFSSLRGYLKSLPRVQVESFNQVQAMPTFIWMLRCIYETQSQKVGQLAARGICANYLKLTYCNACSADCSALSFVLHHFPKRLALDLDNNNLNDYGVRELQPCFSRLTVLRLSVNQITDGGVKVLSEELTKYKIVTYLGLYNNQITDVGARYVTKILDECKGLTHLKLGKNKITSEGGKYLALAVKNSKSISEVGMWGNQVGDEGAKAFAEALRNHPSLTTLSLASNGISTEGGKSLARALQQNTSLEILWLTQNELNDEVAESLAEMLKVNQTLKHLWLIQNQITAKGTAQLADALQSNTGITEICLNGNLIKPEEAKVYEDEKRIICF
Nature of the assay: NOD1 signaling inhibitors, SAR follow-up, revised (AID 2333). The assay is classed as functional.

For assay [7], the target named is T2, Nucleotide-binding oligomerization domain-containing protein 2. Nature of the assay: PubChem AID 2334. Format: functional.
Assay [8] has as its system HEK293. In words: cells. The conditions noted are these: Homo sapiens. Format: functional, cell-based.
The test system of assay [9] is HEK293. In words: cells. The assay is classed as functional, cell-based. The conditions noted are these: Homo sapiens. This is another data set of the same source.
For assay [10], the target named is T1, Corticotropin-releasing factor receptor 2/Corticotropin-releasing factor-binding protein. In words: Dose Response confirmation of uHTS hits for small molecule antagonists of the CRF-binding protein and CRF-R2 receptor complex. The conditions noted are these: read-out: IC50_Mean. The assay is classed as functional.
Assay [11] has as its target T4, Heat shock factor protein 1 (Mus musculus, UniProt P38532).
T4 sequence (P38532 whole entry): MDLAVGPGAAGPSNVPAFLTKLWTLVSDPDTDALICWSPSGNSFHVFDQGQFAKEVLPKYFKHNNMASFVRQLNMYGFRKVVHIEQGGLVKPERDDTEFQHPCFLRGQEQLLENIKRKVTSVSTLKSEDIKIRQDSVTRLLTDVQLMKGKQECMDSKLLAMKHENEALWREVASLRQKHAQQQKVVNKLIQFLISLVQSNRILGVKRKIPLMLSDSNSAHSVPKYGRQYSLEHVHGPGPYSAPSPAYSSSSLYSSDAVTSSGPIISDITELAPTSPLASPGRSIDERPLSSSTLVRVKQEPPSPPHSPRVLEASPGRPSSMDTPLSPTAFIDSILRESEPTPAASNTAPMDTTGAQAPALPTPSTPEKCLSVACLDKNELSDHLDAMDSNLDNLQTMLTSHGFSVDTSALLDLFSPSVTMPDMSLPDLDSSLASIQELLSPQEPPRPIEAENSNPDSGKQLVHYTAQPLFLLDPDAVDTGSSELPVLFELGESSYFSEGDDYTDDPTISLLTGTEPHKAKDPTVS
Nature of the assay: HSF1 potentiators in luciferase reporter cells, confirmation, cell-based, NIH3T3, luminescence, dose retest (AID 435004).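 Note: stress induced by proteasome inhibitor MG132 added 30 min after compound; luciferase reporter driven by HSF1 response element in NIH3T3 cells; actives raise luminescence as potentiators of the MG132 stress response.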 Format: functional. (Reporter assays use an easily measured gene product as a stand-in for the process of interest.)

For assay [12], the system named is HEK293. Nature of the assay: cells. To be noted: Homo sapiens. The assay is classed as functional, cell-based. The source holds these as a separate data set.
The nature of assay [13]: HepG2 cell cytotoxicity, dose response, cytotoxicity control for non-replicating M. tuberculosis project (AID 489018). To be noted: Mycobacterium tuberculosis. The assay is classed as functional.
For another assay, the system named is Streptococcus. In words: Group A Streptococcus viability loss, dose response, counter-screen for streptokinase expression inhibitor project, luminescence, BacTiterGlo (AID 1915).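 Note: potency for reduction of bacterial viability or growth.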 Format: functional, organism-based. In general terms: A counterscreen serves to expose hits that act by an unwanted route or on another target.
For a further assay, the target named is T5, Streptokinase A (Streptococcus pyogenes serotype M1, UniProt P10520).
T5 sequence (P10520 whole entry): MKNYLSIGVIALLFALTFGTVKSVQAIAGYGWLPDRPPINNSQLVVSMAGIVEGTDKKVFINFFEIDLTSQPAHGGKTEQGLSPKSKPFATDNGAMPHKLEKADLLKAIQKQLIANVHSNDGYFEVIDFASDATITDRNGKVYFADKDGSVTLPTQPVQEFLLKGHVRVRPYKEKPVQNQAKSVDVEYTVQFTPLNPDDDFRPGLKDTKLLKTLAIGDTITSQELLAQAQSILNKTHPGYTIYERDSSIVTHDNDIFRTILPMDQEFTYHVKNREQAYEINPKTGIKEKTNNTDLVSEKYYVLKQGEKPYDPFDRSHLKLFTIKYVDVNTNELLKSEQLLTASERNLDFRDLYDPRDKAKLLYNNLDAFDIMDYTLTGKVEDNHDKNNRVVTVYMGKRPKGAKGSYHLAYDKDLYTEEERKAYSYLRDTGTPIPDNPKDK
In words: S. pyogenes streptokinase expression inhibitors, potency, dose response, plasminogen activation absorbance, OD405 (AID 1914).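 Note: secreted streptokinase activity via plasminogen activation per viability signal from cell pellet.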 The assay is classed as functional, Streptococcus pyogenes M1 GAS.

The next assay in a line: cells. Format: functional.
Assay [14] in a line: Vero E6 cell cytotoxicity, dose response, cytotoxicity control for non-replicating M. tuberculosis project, secondary assay (AID 492998). The assay is classed as functional, VeroE6. To be noted: Vero C1008.
Assay [15] deals with Streptococcus sp. 'group A'. In words: growth inhibition of control SK(-) GAS strain, dose response, counter-screen for streptokinase expression inhibitor project, luminescence, kanamycin, BacTiterGlo, confirmation (AID 1900). The assay is classed as functional, organism-based.
A short description of assay [16]: growth suppression of PTEN-null colon cells, dose response, cell-based, HCT116 PTEN knockout (AID 1047).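 Note: HCT116 colon tumor cells with PTEN knocked out; cells exposed to compound for 60 hours before readout; potency for loss of cell viability measured by luminescence.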 Format: functional.
For a further assay, the target named is X-box-binding protein 1 (Homo sapiens, UniProt P17861). Format: functional, Cricetulus griseus.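 Note: confirmatory dose-response counter-screen serving a CHOP assay.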
X-box-binding protein 1, sequence (P17861 whole entry): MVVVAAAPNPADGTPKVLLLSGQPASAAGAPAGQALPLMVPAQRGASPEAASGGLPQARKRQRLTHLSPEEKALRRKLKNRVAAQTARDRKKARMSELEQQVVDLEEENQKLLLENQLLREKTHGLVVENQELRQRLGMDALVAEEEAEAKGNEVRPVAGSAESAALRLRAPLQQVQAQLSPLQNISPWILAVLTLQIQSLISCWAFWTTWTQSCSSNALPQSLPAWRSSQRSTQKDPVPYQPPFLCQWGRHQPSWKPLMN
A short description of assay [17]: growth suppression of beta-catenin-knockout colon cells, dose response, cell-based, HCT116, human colon tumor (AID 1045).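 Note: HCT116 colon tumor cells with beta catenin knocked out; cells exposed to compound for 60 hours.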 Format: functional.
Assay [18] concerns the target T6, Estrogen receptor beta (Homo sapiens, UniProt Q92731). In words: ERβ–SRC-3 coactivator interaction inhibitors, confirmation, orthogonal assay, biochemical, ELISA, streptavidin-HRP readout (AID 1060).
In the next assay the target is Bcl-2-like protein 10 (Homo sapiens, UniProt Q9HD36). In words: displacers of TR3 peptide from Bcl-B, primary screen, selectivity assay for Bfl-1 inhibitor project, biochemical, fluorescence polarization, FITC-TR3 peptide (AID 748).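 Note: fluorescence polarization from a fluorescein-labelled TR3 peptide binding purified Bcl-B.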
Bcl-2-like protein 10, sequence (Q9HD36 whole entry): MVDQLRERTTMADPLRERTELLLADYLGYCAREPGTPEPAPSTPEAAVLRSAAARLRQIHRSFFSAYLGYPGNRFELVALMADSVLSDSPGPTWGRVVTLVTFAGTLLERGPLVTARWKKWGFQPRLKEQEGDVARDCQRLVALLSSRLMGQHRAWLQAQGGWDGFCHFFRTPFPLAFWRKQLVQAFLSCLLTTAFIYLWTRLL
The target of assay [19] is T6, Estrogen receptor beta.
A short description of assay [20]: THP-1 cell cytotoxicity, dose response, cytotoxicity control for Vif-APOBEC3G degradation inhibitor project, THP-1 cells (AID 1117359). To be noted: Human immunodeficiency virus 1, THP-1. Format: functional.

The source made the active and inactive calls.

T2 sequence (Q9HC29 whole entry, the tested form may be a part): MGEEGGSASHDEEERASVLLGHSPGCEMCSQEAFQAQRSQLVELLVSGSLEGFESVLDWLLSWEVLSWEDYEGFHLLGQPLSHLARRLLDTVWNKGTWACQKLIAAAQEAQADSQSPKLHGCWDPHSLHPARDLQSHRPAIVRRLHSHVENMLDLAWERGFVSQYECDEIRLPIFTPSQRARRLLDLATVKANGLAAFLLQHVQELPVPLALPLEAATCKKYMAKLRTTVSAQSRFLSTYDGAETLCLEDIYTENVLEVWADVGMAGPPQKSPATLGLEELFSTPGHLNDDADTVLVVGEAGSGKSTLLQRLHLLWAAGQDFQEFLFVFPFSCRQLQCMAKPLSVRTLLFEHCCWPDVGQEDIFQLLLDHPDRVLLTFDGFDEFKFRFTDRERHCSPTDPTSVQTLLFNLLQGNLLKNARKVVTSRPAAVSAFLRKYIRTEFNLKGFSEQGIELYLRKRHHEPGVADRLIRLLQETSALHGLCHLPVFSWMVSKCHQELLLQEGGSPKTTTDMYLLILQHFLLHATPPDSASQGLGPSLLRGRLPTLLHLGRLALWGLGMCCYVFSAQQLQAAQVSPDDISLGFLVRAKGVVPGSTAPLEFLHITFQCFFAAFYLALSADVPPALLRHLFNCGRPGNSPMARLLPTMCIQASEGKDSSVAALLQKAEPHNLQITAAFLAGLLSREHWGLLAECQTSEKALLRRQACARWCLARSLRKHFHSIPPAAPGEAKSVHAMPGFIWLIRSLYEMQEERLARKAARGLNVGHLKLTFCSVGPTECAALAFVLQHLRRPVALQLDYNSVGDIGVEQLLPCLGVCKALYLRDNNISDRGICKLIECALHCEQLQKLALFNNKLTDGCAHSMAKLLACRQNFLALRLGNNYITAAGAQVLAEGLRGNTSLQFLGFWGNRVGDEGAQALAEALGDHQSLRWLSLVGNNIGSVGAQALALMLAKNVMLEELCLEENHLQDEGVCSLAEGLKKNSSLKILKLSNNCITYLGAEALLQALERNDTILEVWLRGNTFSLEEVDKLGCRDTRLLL
T6 sequence (Q92731 whole entry): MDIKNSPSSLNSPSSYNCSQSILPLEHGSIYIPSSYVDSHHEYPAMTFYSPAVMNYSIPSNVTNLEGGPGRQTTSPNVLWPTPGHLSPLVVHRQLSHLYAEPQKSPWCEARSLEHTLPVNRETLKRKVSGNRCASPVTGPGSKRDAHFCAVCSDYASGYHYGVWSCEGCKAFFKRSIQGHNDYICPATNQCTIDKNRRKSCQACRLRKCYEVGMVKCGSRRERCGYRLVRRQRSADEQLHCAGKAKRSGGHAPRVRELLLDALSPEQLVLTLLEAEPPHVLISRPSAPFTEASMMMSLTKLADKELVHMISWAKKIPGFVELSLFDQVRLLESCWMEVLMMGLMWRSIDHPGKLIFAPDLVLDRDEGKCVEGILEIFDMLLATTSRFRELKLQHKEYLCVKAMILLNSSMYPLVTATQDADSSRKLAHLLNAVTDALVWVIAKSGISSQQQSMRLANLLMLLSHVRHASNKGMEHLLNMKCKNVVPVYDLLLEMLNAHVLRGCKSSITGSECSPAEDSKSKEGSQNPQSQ

Regarding `O=C(NC(=S)N1CCN(c2ccc(F)cc2)CC1)c1cccs1`, the EC50 is > 20 µM (inactive) with HEK293 [1], > 53 µM (inactive) in assay [4], > 20 µM (inactive) in assay [5] and > 260 µM (inactive) in assay [11]. Further, the IC50 with HEK293 [2] was > 20 µM (inactive); at Tumor necrosis factor it was > 20 µM (inactive); in the assay with HEK293 [3], 10 µM (inactive); in assay [6] it was 19.4 µM (active); in assay [7], > 20 µM (inactive); in the assay on HEK293 [8], > 20 µM (inactive). Besides, the IC50 in the assay with HEK293 [9] is > 20 µM (inactive); in assay [10] it was > 47.1 µM (inactive); in the assay with HEK293 [12], > 20 µM (inactive).

One may read the CC50 as the concentration that lowers cell viability or growth by half. For the compound `COc1ccc(CCNc2nc(-c3ccccn3)cs2)cc1OC`, the figures for the CC50 in assay [13] and in [14] were > 20 µM (active) and 14.7 µM (active), respectively. Moreover, the EC50 was > 150 µM (not active) in the assay with Streptococcus, > 150 µM (not active) on Streptokinase A and 14.3 µM (active) in assay [15]. In the assay “cells”, the IC50 was 1.14 µM (active).

Regarding `Oc1[nH]c2ccccc2c1N=NC(S)=NCCc1ccccc1`, the EC50 in assay [16] was 24 µM (active); with Streptococcus, 10.9 µM (active); at Streptokinase A, > 150 µM (not active); in [17] it was 23 µM (active); in assay [15] it was 4.7 µM (active). The “Absolute IC50 (XBP1)” value at X-box-binding protein 1 was 10 µM.

`O=C(CSc1ccc(Cl)cc1)c1ccco1`: the IC50 against Estrogen receptor beta [18] is 17.9 µM (not active); on Bcl-2-like protein 10, 25.5 µM (active); on Estrogen receptor beta [19], < 1.56 µM (active). For the same compound, the CC50 in assay [20] was > 40 µM (active).

For `O=C(C1CC1)N1CCc2cc(S(=O)(=O)N3CCN(c4ccc(Cl)cc4)CC3)ccc21`, the IC50 (in the assay with HEK293 [2]; on Tumor necrosis factor; in [6]; in [7]) was > 20 µM (inactive) in each case.
